Assay results published in patent publication US10870647B2, “Imidazopyridine derivative, method for preparing same, and pharmaceutical composition containing same as active ingredient for preventing or treating cancer” (DAEGU-GYEONGBUK MEDICAL INNOVATION FOUNDATION, priority 2016, dated 2020).

Columns and labels:
Test in all cases: Kinase selectivity, scanMAX Kinase assay panel (DiscoverX), % control at 1 uM
Format in all cases: binding
[1] = molecular target: T1, scanMAX Kinase assay panel (Homo sapiens, UniProt Q5S007, G2019S); settings: LRRK2 (G2019S); 1 uM; read-out: Percent Control (%)
T1 construct: purchased DiscoverX
T1 sequence (Q5S007 whole entry G2019S): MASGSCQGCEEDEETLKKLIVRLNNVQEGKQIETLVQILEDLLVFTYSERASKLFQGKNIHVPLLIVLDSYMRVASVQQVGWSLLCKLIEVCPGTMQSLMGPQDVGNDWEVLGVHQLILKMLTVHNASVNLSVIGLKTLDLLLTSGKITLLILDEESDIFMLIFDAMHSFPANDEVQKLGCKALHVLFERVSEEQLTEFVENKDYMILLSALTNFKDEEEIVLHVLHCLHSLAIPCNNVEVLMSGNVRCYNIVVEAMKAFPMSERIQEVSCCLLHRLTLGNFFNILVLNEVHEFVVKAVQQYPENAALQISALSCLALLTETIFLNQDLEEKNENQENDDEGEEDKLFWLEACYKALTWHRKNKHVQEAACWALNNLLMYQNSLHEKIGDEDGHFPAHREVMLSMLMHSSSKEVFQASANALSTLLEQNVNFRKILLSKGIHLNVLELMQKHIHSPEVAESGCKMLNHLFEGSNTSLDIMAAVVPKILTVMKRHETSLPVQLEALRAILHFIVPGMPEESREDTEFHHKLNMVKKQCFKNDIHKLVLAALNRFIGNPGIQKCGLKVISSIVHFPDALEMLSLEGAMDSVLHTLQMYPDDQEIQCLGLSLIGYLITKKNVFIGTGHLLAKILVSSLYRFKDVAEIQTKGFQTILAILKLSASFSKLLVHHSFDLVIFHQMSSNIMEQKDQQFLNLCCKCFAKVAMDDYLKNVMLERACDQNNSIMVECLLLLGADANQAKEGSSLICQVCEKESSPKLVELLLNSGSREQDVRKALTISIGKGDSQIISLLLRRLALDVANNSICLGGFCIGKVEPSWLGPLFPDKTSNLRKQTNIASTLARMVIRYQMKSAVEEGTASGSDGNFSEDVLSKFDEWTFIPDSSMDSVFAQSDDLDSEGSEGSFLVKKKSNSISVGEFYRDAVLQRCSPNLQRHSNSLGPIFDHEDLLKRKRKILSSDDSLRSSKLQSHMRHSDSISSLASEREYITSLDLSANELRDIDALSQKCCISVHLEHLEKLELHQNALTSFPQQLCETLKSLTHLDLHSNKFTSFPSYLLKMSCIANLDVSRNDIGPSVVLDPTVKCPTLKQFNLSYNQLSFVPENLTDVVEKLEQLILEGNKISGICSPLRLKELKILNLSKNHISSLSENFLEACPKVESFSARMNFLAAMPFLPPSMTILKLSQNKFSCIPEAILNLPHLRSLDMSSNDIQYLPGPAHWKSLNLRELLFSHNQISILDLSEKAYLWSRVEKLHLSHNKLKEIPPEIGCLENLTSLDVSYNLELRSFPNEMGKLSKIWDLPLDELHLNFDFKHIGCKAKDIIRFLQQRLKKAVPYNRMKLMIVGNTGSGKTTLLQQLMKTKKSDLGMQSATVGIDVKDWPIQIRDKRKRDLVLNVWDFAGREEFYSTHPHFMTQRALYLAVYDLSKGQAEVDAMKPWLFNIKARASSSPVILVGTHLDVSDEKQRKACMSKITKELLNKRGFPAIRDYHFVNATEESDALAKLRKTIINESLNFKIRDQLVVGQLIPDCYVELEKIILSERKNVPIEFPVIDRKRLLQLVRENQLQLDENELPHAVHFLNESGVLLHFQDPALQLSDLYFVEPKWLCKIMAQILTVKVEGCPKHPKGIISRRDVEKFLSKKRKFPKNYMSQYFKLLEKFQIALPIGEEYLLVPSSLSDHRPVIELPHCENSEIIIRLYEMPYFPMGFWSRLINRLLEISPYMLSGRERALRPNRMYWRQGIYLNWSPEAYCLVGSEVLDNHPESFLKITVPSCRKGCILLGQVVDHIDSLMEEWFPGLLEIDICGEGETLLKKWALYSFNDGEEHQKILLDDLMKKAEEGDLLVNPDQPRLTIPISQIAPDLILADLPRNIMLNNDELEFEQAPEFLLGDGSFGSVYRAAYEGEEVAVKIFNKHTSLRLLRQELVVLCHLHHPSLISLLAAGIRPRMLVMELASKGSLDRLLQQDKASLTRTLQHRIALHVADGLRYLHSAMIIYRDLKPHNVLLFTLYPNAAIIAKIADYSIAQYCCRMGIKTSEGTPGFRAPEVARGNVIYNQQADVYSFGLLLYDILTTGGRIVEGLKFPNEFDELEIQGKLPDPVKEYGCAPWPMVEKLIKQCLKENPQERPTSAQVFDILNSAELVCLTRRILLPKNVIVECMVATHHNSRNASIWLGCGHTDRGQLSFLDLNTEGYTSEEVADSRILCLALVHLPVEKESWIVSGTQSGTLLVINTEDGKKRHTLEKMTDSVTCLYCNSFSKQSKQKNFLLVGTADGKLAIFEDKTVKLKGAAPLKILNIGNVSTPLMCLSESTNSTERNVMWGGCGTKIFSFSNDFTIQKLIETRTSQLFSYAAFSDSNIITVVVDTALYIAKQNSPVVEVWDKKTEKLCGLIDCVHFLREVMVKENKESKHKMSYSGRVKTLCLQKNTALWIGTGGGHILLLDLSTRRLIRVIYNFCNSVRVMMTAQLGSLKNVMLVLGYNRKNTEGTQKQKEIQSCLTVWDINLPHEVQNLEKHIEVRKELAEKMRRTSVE
Procedure, shortened: (§1)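 A single concentration of 1 uM, in DMSO, is applied across the kinase panel. Activity against an individual enzyme is assigned where % control is less than 35.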

[2] = molecular target: T2, scanMAX Kinase assay panel (Homo sapiens, UniProt Q9NYY3); settings: PLK2; 1 uM; read-out: Percent Control (%)
T2 construct: purchased DiscoverX
T2 sequence (Q9NYY3 whole entry): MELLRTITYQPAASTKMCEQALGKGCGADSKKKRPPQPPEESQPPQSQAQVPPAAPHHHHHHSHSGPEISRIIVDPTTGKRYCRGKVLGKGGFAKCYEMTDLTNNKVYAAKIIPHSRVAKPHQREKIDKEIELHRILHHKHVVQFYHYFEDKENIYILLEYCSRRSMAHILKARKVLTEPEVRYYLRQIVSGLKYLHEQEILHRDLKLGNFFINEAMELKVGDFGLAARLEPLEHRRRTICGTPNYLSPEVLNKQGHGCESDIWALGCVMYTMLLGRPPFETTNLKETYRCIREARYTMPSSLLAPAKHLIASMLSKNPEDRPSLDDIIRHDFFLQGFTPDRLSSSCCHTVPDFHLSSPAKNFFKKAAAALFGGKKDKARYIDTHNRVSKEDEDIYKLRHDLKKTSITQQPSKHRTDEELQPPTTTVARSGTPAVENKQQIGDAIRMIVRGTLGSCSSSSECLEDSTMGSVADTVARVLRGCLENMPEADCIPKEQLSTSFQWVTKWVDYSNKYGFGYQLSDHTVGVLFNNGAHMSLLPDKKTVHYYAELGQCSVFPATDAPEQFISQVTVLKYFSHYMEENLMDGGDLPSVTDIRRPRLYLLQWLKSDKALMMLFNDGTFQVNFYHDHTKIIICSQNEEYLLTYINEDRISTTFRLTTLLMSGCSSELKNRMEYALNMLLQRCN
Procedure, shortened: as §1

[3] = molecular target: T3, scanMAX Kinase assay panel (Homo sapiens, UniProt Q8IYT8); settings: ULK2; 1 uM; read-out: Percent Control (%)
T3 construct: purchased DiscoverX
T3 sequence (Q8IYT8 1-1036): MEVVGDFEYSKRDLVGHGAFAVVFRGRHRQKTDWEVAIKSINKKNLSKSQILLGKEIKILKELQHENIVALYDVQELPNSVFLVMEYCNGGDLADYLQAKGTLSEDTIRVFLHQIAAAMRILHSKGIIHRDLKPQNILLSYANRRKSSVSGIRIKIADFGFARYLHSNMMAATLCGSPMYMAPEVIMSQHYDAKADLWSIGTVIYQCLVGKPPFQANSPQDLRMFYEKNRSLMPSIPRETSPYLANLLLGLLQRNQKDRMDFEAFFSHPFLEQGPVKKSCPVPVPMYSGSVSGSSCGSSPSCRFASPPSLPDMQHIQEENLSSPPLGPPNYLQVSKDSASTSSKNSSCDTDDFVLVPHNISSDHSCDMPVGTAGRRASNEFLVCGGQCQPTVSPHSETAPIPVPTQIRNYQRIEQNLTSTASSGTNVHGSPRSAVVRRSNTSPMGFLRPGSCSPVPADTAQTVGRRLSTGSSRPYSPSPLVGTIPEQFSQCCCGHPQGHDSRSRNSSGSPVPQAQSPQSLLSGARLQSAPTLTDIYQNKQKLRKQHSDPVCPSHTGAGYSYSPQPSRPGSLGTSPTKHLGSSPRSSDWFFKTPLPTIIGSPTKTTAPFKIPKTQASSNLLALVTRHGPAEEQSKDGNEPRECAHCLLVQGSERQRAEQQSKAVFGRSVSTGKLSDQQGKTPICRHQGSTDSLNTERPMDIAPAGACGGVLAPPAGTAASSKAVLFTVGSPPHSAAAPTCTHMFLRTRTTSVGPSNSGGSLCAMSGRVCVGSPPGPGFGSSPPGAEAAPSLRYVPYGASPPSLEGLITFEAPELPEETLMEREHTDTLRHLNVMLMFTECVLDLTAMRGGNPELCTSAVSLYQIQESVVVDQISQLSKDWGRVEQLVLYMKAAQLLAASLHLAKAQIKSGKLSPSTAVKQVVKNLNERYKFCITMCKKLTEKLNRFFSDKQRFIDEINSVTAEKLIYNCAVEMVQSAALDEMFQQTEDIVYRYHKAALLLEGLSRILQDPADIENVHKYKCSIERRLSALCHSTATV
Procedure, shortened: as §1

[4] = molecular target: T4, scanMAX Kinase assay panel (Homo sapiens, UniProt P35626); settings: GRK3; 1 uM; read-out: Percent Control (%)
T4 construct: purchased DiscoverX
T4 sequence (P35626 1-688): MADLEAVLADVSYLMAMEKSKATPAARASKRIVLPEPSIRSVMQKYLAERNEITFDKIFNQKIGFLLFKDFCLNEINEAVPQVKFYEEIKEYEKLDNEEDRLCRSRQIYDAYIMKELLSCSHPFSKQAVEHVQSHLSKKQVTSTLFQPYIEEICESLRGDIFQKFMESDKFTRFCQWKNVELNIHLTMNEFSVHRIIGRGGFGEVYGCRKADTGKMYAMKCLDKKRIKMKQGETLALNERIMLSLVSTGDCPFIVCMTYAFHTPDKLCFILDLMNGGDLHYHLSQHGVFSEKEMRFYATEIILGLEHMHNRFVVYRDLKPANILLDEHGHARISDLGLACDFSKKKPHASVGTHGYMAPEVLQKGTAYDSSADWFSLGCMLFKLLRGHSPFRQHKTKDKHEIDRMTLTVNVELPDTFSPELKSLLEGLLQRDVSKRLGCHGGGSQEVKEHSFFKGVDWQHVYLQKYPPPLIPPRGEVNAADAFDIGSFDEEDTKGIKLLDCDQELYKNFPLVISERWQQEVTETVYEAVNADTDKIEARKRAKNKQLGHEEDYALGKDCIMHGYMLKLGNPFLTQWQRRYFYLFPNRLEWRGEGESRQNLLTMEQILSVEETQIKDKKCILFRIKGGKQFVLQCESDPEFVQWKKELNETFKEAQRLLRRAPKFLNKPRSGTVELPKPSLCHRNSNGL
Procedure, shortened: as §1

In the case of `Cc1ccc(NC(=O)C2(C(=O)Nc3ccc(F)cc3)CC2)cc1C#Cc1cnc2c(Nc3cnn(C(C)C)c3)cccn12` [Example 78], the remaining binding at 1 µM [1] is reported as 100%, the remaining binding at 1 µM [2] is reported as 62% and the remaining binding at 1 µM [3] is reported as 90%. It also gave a remaining binding at 1 µM [4] of 97%.

`Cc1cn(-c2cc(NC(=O)c3ccc(C)c(C#Cc4cnc5c(Nc6cnn(C)c6)cccn45)c3)cc(C(F)(F)F)c2)cn1` [Example 12, 4-methyl-N-(3-(4-methyl-1H-imidazol-1-yl)-5-(trifluoromethyl)phenyl)-3-((8-((1-methyl-1H-pyrazol-4-yl)amino)imidazo[1,2-a]pyridin-3-yl)ethynyl)benzamide] showed a remaining binding at 1 µM [1] of 100%, a remaining binding at 1 µM [2] of 100% and a remaining binding at 1 µM [3] of 100%. The remaining binding at 1 µM [4] was 100%.

Work on `Cc1ccc(C(=O)Nc2ccc(CN3CCN(C)CC3)c(C(F)(F)F)c2)cc1C#Cc1cnc2c(Nc3cnn(C)c3)cccn12` [Example 1, 4-methyl-3-((8-((1-methyl-1H-pyrazol-4-yl)amino)imidazo[1,2-a]pyridin-3-yl)ethynyl)-N-(4-((4-methylpiperazin-1-yl)methyl)-3-(trifluoromethyl)phenyl)benzamide] yielded a remaining binding at 1 µM [1] of 27%, a remaining binding at 1 µM [2] of 84% and a remaining binding at 1 µM [3] of 62%. The remaining binding at 1 µM [4] was 82%.
